A short description of data set [1]: Compound cytotoxicity, XTT-based colorimetric assay. Conditions: human. The class given is cell-based. Summed up: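 Uninfected MT2 cells, antiviral-assay protocol without virus; XTT colorimetric readout day 4; CC50 reported.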
(In general: Formazan colour is commonly taken as a measure of viable cells.)

Data set [2] deals with recombinant NL4-3 virus (nef section replaced with Renilla luciferase gene) in MT-2 cells. As to the kind of experiment: HIV cell culture assay (antiviral activity, luciferase readout). Conditions: Renilla, NL43, MT-2 cells infected for 4-5 days with recombinant NL4-3 Renilla luciferase virus. The data set is classed as cell-based. In short, it runs like this: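 EC50 was derived by median-effect fitting of Renilla luciferase signal from MT-2 cells. These cells were infected for 4–5 days with NL4-3 reporter virus (nef partly replaced by luciferase; made in 293T cells) in the presence of serially diluted compound. Activity was quantified with a live-cell luciferase substrate.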

Setting [3] is: uninfected MT2 cells, day 4, XTT, read-out: CC50.

Like-named read-outs stand apart in the source and are kept apart here. Bounds are passed on as bounds.

As for `COCCCn1nc(NS(C)(=O)=O)c2c(Cl)ccc(-n3c([C@H](Cc4cc(F)cc(F)c4)NC(=O)Cn4nc(C(F)F)c5c4C(F)(F)[C@@H]4C[C@H]54)nc4nc(C5CCC(F)(F)CC5)cc(NCC(=O)N5CCCCC5)c4c3=O)c21` (atropisomer, axis not shown; (P)) [Example 566, N-[(1S)-1-[(3P)-3-[4-chloro-3-methanesulfonamido-1-(3-methoxypropyl)-1H-indazol-7-yl]-7-(4,4-difluorocyclohexyl)-4-oxo-5-{[2-oxo-2-(piperidin-1-yl)ethyl]amino}-3H,4H-pyrido[2,3-d]pyrimidin-2-yl]-2-(3,5-difluorophenyl)ethyl]-2-[(2S,4R)-9-(difluoromethyl)-5,5-difluoro-7,8-diazatricyclo[4.3.0.0^2,^4]nona-1(6),8-dien-7-yl]acetamide], the CC50 at 4 days in data set [1] (setting [3]) was greater than 20 nM. For the same compound, in data set [2], the 50% effective concentration (EC50) amounted to 0.079 nM.

In the case of `COCCCn1nc(NS(C)(=O)=O)c2c(Cl)ccc(-n3c([C@H](Cc4cc(F)cc(F)c4)NC(=O)Cn4nc(C(F)F)c5c4C(F)(F)[C@@H]4C[C@H]54)nc4nc(C5CCC(F)(F)CC5)cc(NCCNC(C)=O)c4c3=O)c21` (atropisomer, axis not shown; (P)) [Example 432, N-[(1S)-1-[(3P)-3-[4-chloro-3-methanesulfonamido-1-(3-methoxypropyl)-1H-indazol-7-yl]-7-(4,4-difluorocyclohexyl)-5-[(2-acetamidoethyl)amino]-4-oxo-3H,4H-pyrido[2,3-d]pyrimidin-2-yl]-2-(3,5-difluorophenyl)ethyl]-2-[(2S,4R)-9-(difluoromethyl)-5,5-difluoro-7,8-diazatricyclo[4.3.0.0^2,^4]nona-1(6),8-dien-7-yl]acetamide], in data set [1] (setting [3]), the half-maximal cytotoxic concentration (CC50) at 4 days is greater than 20 nM. Moreover, in data set [2], the EC50 came to 0.182 nM.

Compound `Cc1cc(C2(F)CCC(F)(F)CC2)nc2nc([C@H](Cc3cc(F)cc(F)c3)NC(=O)Cn3nc(C4CC4)c4c3C[C@@H]3C[C@H]43)n(-c3ccc(Cl)c4c(NS(C)(=O)=O)nn(CCN5CC6CC(C5)O6)c34)c(=O)c12` [Example 591, N-[(1S)-1-[(3P)-3-[4-chloro-3-methanesulfonamido-1-(2-{6-oxa-3-azabicyclo[3.1.1]heptan-3-yl}ethyl)-1H-indazol-7-yl]-5-methyl-4-oxo-7-(1,4,4-trifluorocyclohexyl)-3H,4H-pyrido[2,3-d]pyrimidin-2-yl]-2-(3,5-difluorophenyl)ethyl]-2-[(2S,4S)-9-cyclopropyl-7,8-diazatricyclo[4.3.0.0^2,^4]nona-1(6),8-dien-7-yl]acetamide] had a CC50 at 4 days in data set [1] greater than 20 nM. In addition, the EC50 in data set [2] is 0.006 nM.

As to `CCNc1cc(C2CCC(F)(F)CC2)nc2nc([C@H](Cc3cc(F)cc(F)c3)NC(=O)Cn3nc(C(F)F)c4c3C(F)(F)[C@@H]3C[C@H]43)n(-c3ccc(Cl)c4c(NS(C)(=O)=O)nn(CCCOC)c34)c(=O)c12` (atropisomer, axis not shown; (P)) [Example 427, N-[(1S)-1-[(3P)-3-[4-chloro-3-methanesulfonamido-1-(3-methoxypropyl)-1H-indazol-7-yl]-7-(4,4-difluorocyclohexyl)-5-(ethylamino)-4-oxo-3H,4H-pyrido[2,3-d]pyrimidin-2-yl]-2-(3,5-difluorophenyl)ethyl]-2-[(2S,4R)-9-(difluoromethyl)-5,5-difluoro-7,8-diazatricyclo[4.3.0.0^2,4]nona-1(6),8-dien-7-yl]acetamide], the CC50 at 4 days in data set [1] (setting [3]) is greater than 20 nM. Besides, the concentration for a half-maximal effect (EC50) in data set [2] was 0.01 nM.

`Cc1cc(C2(F)CCC(F)(F)CC2)nc2nc([C@H](Cc3cc(F)cc(F)c3)NC(=O)Cn3nc(C(F)(F)F)c4c3C[C@@H]3C[C@H]43)n(-c3ccc(Cl)c4c(NS(C)(=O)=O)nn(CCN5C[C@@H](C)O[C@@H](C)C5)c34)c(=O)c12` (atropisomer, axis not shown; (P)) [Example 597, N-[(1S)-1-[(3P)-3-(4-chloro-1-{2-[(2R,6S)-2,6-dimethylmorpholin-4-yl]ethyl}-3-methanesulfonamido-1H-indazol-7-yl)-5-methyl-4-oxo-7-(1,4,4-trifluorocyclohexyl)-3H,4H-pyrido[2,3-d]pyrimidin-2-yl]-2-(3,5-difluorophenyl)ethyl]-2-[(2S,4S)-9-(trifluoromethyl)-7,8-diazatricyclo[4.3.0.0^2,^4]nona-1(6),8-dien-7-yl]acetamide]: the 50% cytotoxic concentration (CC50) at 4 days in data set [1] (setting [3]) was greater than 20 nM. Moreover, in data set [2], the EC50 stood at 0.021 nM.

For `C[C@@H]1CN(Cc2cc(C3CCC(F)(F)CC3)nc3nc([C@H](Cc4cc(F)cc(F)c4)NC(=O)Cn4nc(C(F)F)c5c4C(F)(F)[C@@H]4C[C@H]54)n(-c4ccc(Cl)c5c(NS(C)(=O)=O)nn(CCN6CC(C)(C)OC(C)(C)C6)c45)c(=O)c23)C[C@H](C)O1` (atropisomer, axis not shown; (P)) [Example 529, N-[(1S)-1-[(3P)-3-{4-chloro-3-methanesulfonamido-1-[2-(2,2,6,6-tetramethylmorpholin-4-yl)ethyl]-1H-indazol-7-yl}-7-(4,4-difluorocyclohexyl)-5-{[(2R,6S)-2,6-dimethylmorpholin-4-yl]methyl}-4-oxo-3H,4H-pyrido[2,3-d]pyrimidin-2-yl]-2-(3,5-difluorophenyl)ethyl]-2-[(2S,4R)-9-(difluoromethyl)-5,5-difluoro-7,8-diazatricyclo[4.3.0.0^2,4]nona-1(6),8-dien-7-yl]acetamide], the CC50 at 4 days in data set [1] (setting [3]) is greater than 1000 nM. The EC50 in data set [2] came to 0.017 nM.

Turning to `CS(=O)(=O)Nc1nn(CCN2CCC(F)(F)C2)c2c(-n3c([C@H](Cc4cc(F)cc(F)c4)NC(=O)Cn4nc(C(F)F)c5c4C(F)(F)[C@@H]4C[C@H]54)nc4nc(C5CCC(F)(F)CC5)cc(C(F)F)c4c3=O)ccc(Cl)c12` (atropisomer, axis not shown; (P)) [Example 154, N-[(1S)-1-[(3P)-3-{4-chloro-1-[2-(3,3-difluoropyrrolidin-1-yl)ethyl]-3-methanesulfonamido-1H-indazol-7-yl}-7-(4,4-difluorocyclohexyl)-5-(difluoromethyl)-4-oxo-3H,4H-pyrido[2,3-d]pyrimidin-2-yl]-2-(3,5-difluorophenyl)ethyl]-2-[(2S,4R)-9-(difluoromethyl)-5,5-difluoro-7,8-diazatricyclo[4.3.0.0^2,^4]nona-1(6),8-dien-7-yl]acetamide], the CC50 at 4 days in data set [1] (setting [3]) was greater than 50 nM. Further, the concentration giving a half-maximal response (EC50) in data set [2] came to 0.019 nM.

As for `Cc1cc(C2(F)CCC(F)(F)CC2)nc2nc([C@H](Cc3cc(F)cc(F)c3)NC(=O)Cn3nc(C(F)F)c4c3C(F)(F)[C@@H]3C[C@H]43)n(-c3ccc(Cl)c4c(NS(C)(=O)=O)nn([C@@H](C)CN5C[C@@H](C)O[C@@H](C)C5)c34)c(=O)c12` (atropisomer, axis not shown; (P)) [Example 747, N-[(1S)-1-[(3P)-3-{4-chloro-1-[(2S)-1-[(2R,6S)-2,6-dimethylmorpholin-4-yl]propan-2-yl]-3-methanesulfonamido-1H-indazol-7-yl}-5-methyl-4-oxo-7-(1,4,4-trifluorocyclohexyl)-3H,4H-pyrido[2,3-d]pyrimidin-2-yl]-2-(3,5-difluorophenyl)ethyl]-2-[(2S,4R)-9-(difluoromethyl)-5,5-difluoro-7,8-diazatricyclo[4.3.0.0^2,^4]nona-1(6),8-dien-7-yl]acetamide], the CC50 at 4 days in data set [1] (setting [3]) was greater than 20 nM. Also, the concentration for a half-maximal effect (EC50) in data set [2] was 0.017 nM.

For `COCCNCCn1nc(NS(C)(=O)=O)c2c(Cl)ccc(-n3c([C@H](Cc4cc(F)cc(F)c4)NC(=O)Cn4nc(C5CC5)c5c4C[C@@H]4C[C@H]54)nc4nc(C5CCC(F)(F)CC5)cc(C)c4c3=O)c21` (atropisomer, axis not shown; (P)) [Example 10, N-[(1S)-1-[(3P)-3-(4-chloro-3-methanesulfonamido-1-{2-[(2-methoxyethyl)amino]ethyl}-1H-indazol-7-yl)-7-(4,4-difluorocyclohexyl)-5-methyl-4-oxo-3H,4H-pyrido[2,3-d]pyrimidin-2-yl]-2-(3,5-difluorophenyl)ethyl]-2-[(2S,4S)-9-cyclopropyl-7,8-diazatricyclo[4.3.0.0^2,^4]nona-1(6),8-dien-7-yl]acetamide], in data set [1] (setting [3]), the 50% cytotoxic concentration (CC50) at 4 days was greater than 50 nM. The 50% effective concentration (EC50) in data set [2] is 0.06 nM.

With `C[C@@H]1CN(Cc2cc(C3CCC(F)(F)CC3)nc3nc([C@H](Cc4cc(F)cc(F)c4)NC(=O)Cn4nc(C(F)F)c5c4C(F)(F)[C@@H]4C[C@H]54)n(-c4ccc(Cl)c5c(NS(C)(=O)=O)nn(CCN6CCC(F)(F)CC6)c45)c(=O)c23)C[C@H](C)O1` (atropisomer, axis not shown; (P)) [Example 525, N-[(1S)-1-[(3P)-3-{4-chloro-1-[2-(4,4-difluoropiperidin-1-yl)ethyl]-3-methanesulfonamido-1H-indazol-7-yl}-7-(4,4-difluorocyclohexyl)-5-{[(2R,6S)-2,6-dimethylmorpholin-4-yl]methyl}-4-oxo-3H,4H-pyrido[2,3-d]pyrimidin-2-yl]-2-(3,5-difluorophenyl)ethyl]-2-[(2S,4R)-9-(difluoromethyl)-5,5-difluoro-7,8-diazatricyclo[4.3.0.0^2,^4]nona-1(6),8-dien-7-yl]acetamide], the 50% cytotoxic concentration (CC50) at 4 days in data set [1] (setting [3]) was greater than 20 nM. For the same compound, the EC50 in data set [2] is 0.016 nM.

Regarding `Cc1cc(C2(F)CCC(F)(F)CC2)nc2nc([C@H](Cc3cc(F)cc(F)c3)NC(=O)Cn3nc(C(F)F)c4c3C(F)(F)[C@@H]3C[C@H]43)n(-c3ccc(Cl)c4c(NS(C)(=O)=O)nn(CCN5CCOCC5(C)C)c34)c(=O)c12` (atropisomer, axis not shown; (P)) [Example 579, N-[(1S)-1-[(3P)-3-{4-chloro-1-[2-(3,3-dimethylmorpholin-4-yl)ethyl]-3-methanesulfonamido-1H-indazol-7-yl}-5-methyl-4-oxo-7-(1,4,4-trifluorocyclohexyl)-3H,4H-pyrido[2,3-d]pyrimidin-2-yl]-2-(3,5-difluorophenyl)ethyl]-2-[(2S,4R)-9-(difluoromethyl)-5,5-difluoro-7,8-diazatricyclo[4.3.0.0^2,^4]nona-1(6),8-dien-7-yl]acetamide], the CC50 at 4 days in data set [1] (setting [3]) is greater than 20 nM. For the same compound, in data set [2], the 50% effective concentration (EC50) was found to be 0.011 nM.

What is called CC50 is the concentration giving 50% cytotoxicity. As a reminder, the EC50 is the concentration at which the effect is half-maximal.

Source of the values: patent US12594276B2, “Inhibitors of human immunodeficiency virus replication” (ViiV Healthcare UK (No.5) Limited, priority 2024, dated 2026).
